“And” between values parts separate entries of the source, which are not always exact repeats. Equal entries are not always repeated.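 Each compound was tested at five concentrations against cells in 96-well plates for 48 hours. At the GI50, growth is halved. TGI denotes the concentration required for complete inhibition of growth.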
Experiments:
Assay in all cases: DTP human tumour cell line panel, 48 h
NCI-H226 lung = test system: NCI-H226 lung
IGROV1 ovarian = test system: IGROV1 ovarian
HOP-92 NSCLC = test system: HOP-92 NSCLC
KM12 colon = test system: KM12 colon
COLO 205 colon = test system: COLO 205 colon
HCT-15 colon = test system: HCT-15 colon
UO-31 renal = test system: UO-31 renal
SK-MEL-5 melanoma = test system: SK-MEL-5 melanoma
K-562 leukemia = test system: K-562 leukemia
RPMI-8226 leukemia = test system: RPMI-8226 leukemia
UACC-257 melanoma = test system: UACC-257 melanoma
HCC-2998 colon = test system: HCC-2998 colon
OVCAR-4 ovarian = test system: OVCAR-4 ovarian
BT-549 breast = test system: BT-549 breast

Structure (SMILES) | TGI (NCI-H226 lung) | TGI (IGROV1 ovarian) | TGI (HOP-92 NSCLC) | TGI (KM12 colon) | TGI (COLO 205 colon) | TGI (HCT-15 colon) | TGI (UO-31 renal) | TGI (SK-MEL-5 melanoma) | TGI (K-562 leukemia) | TGI (RPMI-8226 leukemia) | TGI (UACC-257 melanoma) | TGI (HCC-2998 colon) | TGI (OVCAR-4 ovarian) | TGI (BT-549 breast) | GI50 (NCI-H226 lung) | GI50 (UO-31 renal) | GI50 (UACC-257 melanoma) | GI50 (HCC-2998 colon) | GI50 (OVCAR-4 ovarian)
C#CC1(O)CCC2[C@@H]3CCc4cc(Oc5nc(F)nc(-c6c7ccccc7c(SCC)n6CCC)n5)ccc4C3CC[C@@]21C (stereo partly specified) | 50.1 µM | > 100 µM | > 100 µM | > 100 µM | > 100 µM | > 100 µM | > 100 µM | > 100 µM | > 100 µM | > 100 µM | > 100 µM | > 100 µM | > 100 µM |  |  |  |  |  | 
COC(=O)c1c2c(cc3c1CC1(Cc4cc5c(c(C(C)=O)c4C1)CCCC5)C3)CCCC2 (stereo unspecified) | > 100 µM | > 100 µM | > 100 µM | > 100 µM | > 100 µM | > 100 µM |  | > 100 µM | > 100 µM | 87.5 µM | > 100 µM | > 100 µM | > 100 µM |  |  |  |  |  | 
O=[N+]([O-])/C=C(\CS(=O)(=O)c1ccccc1)c1ccc2c(c1)OCO2 | 84.5 µM | > 100 µM | > 100 µM | 71.7 µM | > 100 µM | > 100 µM | 98.7 µM | > 100 µM | > 100 µM | > 100 µM |  | > 100 µM |  |  |  |  |  |  | 
C/C=C(\C)C(=O)O[C@@H]1CC(C)(C)CC2C3=CCC4[C@]56CC[C@](O)(OC5)C(C)(C)C6CC[C@@]4(C)C3(C)CC[C@]21C(=O)O (stereo partly specified) | > 100 µM | > 100 µM |  | > 100 µM | > 100 µM | > 100 µM |  | > 100 µM | > 100 µM | > 100 µM | > 100 µM | > 100 µM | > 100 µM | > 100 µM |  |  |  |  | 
COc1c(Br)cc2ccccc2c1-c1c(OC)c(Br)cc2ccccc12 | > 100 µM | > 100 µM | > 100 µM | > 100 µM | > 100 µM | > 100 µM | > 100 µM | > 100 µM | > 100 µM | > 100 µM | > 100 µM | > 100 µM | > 100 µM |  |  |  |  |  | 
COC(=O)C1CCC(=O)N1C(c1cc(OC)c(OC)c(OC)c1)c1cccc2ccccc12 (stereo unspecified) | > 100 µM | > 100 µM | > 100 µM | > 100 µM |  | > 100 µM | > 100 µM |  | > 100 µM | > 100 µM | > 100 µM |  |  |  |  |  |  |  | 
NCCCNOCCCN |  |  | > 100 µM | > 100 µM | > 100 µM | > 100 µM | > 100 µM | > 100 µM | > 100 µM | > 100 µM |  | > 100 µM | > 100 µM |  |  |  |  |  | 
NC(=O)CC(N)C(=O)NC(Cc1ccccc1)C(=O)NC(Cc1ccccc1)NC(=O)C(Cc1c[nH]c2ccccc12)C(=O)O (stereo unspecified) | > 100 µM | > 100 µM | > 100 µM | > 100 µM | > 100 µM | > 100 µM | > 100 µM | > 100 µM | > 100 µM | > 100 µM | > 100 µM | > 100 µM | > 100 µM |  |  |  |  |  | 
CCOC(=O)CCN1C(=O)C(=O)N(c2ccc(OC)cc2)C1=S | > 100 µM | > 100 µM | > 100 µM | > 100 µM | > 100 µM | > 100 µM | > 100 µM | > 100 µM | > 100 µM | > 100 µM | > 100 µM | > 100 µM | > 100 µM |  |  |  |  |  | 
c1ccc(SC23C4C5C6C4C2C6C53)nc1 (stereo unspecified) | > 100 µM | > 100 µM | > 100 µM | > 100 µM | > 100 µM | > 100 µM | > 100 µM | > 100 µM | > 100 µM | > 54 µM | > 100 µM | > 100 µM | > 100 µM |  |  |  |  |  | 
CCn1c2c(c3ccccc31)[C@@H](c1ccc(Cl)cc1)CC1C(=O)N(c3ccccc3)C(=O)C21 (stereo partly specified) | > 100 µM | > 100 µM | 90.5 µM | > 100 µM | > 100 µM | > 100 µM | > 100 µM | > 100 µM | > 100 µM | > 100 µM | > 100 µM | > 100 µM | > 100 µM |  |  |  |  |  | 
CCCCSC1=N/C(=C\c2ccc(N(C)C)cc2)C(=O)N1 | 54.2 µM | > 100 µM | 96.2 µM | > 100 µM | > 100 µM | > 100 µM |  | > 100 µM | > 100 µM | 50.2 µM | 56.7 µM |  | > 100 µM | > 100 µM |  |  |  |  | 
C=CCOC(OCC=C)/C(Br)=C/C | > 100 µM |  | > 100 µM | > 100 µM | 52.9 µM | 89.3 µM | > 100 µM | > 100 µM | > 100 µM | > 100 µM | > 100 µM | > 100 µM | 63.7 µM |  |  |  |  |  | 
COC(=O)CCNc1c2ccccc2nc2cccc([N+](=O)[O-])c12 | 0.0333 µM and 0.0378 µM | 0.0261 µM and 0.0901 µM |  | 0.00451 µM | 0.0171 µM |  | 0.00492 µM and 0.0113 µM |  | 0.00152 µM | 0.0236 µM | 0.00704 µM and 0.0476 µM | 2.33 µM | 0.0251 µM |  | 0.00347 µM | 0.00139 µM | 0.0023 µM and 0.0122 µM | 1.04 µM | 0.00454 µM
C#C[C@@]1(O)CCCC2=CC3(CC[C@]21C)SCCS3 | > 100 µM | > 100 µM | > 100 µM | > 100 µM | > 100 µM | > 100 µM | > 100 µM | > 100 µM | > 100 µM | > 100 µM | > 100 µM | > 100 µM | > 100 µM |  |  |  |  |  | 
Cc1cc2c(c(S(=O)(=O)c3ccccc3[N+](=O)[O-])c1)NCCC2 | > 100 µM | > 100 µM |  | > 100 µM | > 100 µM | > 100 µM | > 100 µM | > 100 µM |  | > 100 µM |  | > 100 µM | > 100 µM | > 100 µM |  |  |  |  | 
CCOC(=O)C(=CNC(=S)N=Nc1c(O)[nH]c2ccccc12)C(=O)OCC | > 100 µM |  | > 100 µM | > 100 µM | > 100 µM |  | > 100 µM | > 100 µM | > 100 µM | > 100 µM | > 100 µM | > 100 µM | > 100 µM |  |  |  |  |  | 

Source: PubChem BioAssay (NCI)
